From ChEMBL document CHEMBL1255529, “Design, synthesis, and anticancer activities of novel perfluoroalkyltriazole-appended 2'-deoxyuridines” (Bioorg Med Chem Lett, 2010)

Assays:
PC-3 = assay: Anticancer activity against human PC3 cells by SRB assay; format: functional; details: for GI50: Homo sapiens, PC-3
MDA-MB-231 = assay: Anticancer activity against human MDA-MB-231 cells by SRB assay; format: functional; details: for GI50: Homo sapiens, MDA-MB-231
ACHN = assay: Anticancer activity against human ACHN cells by SRB assay; format: functional; details: for GI50: Homo sapiens, ACHN
[1] = Antiproliferative activity against human CCD-33Lu

SMILES | GI (PC-3) | GI (MDA-MB-231) | GI (ACHN) | Activity [1] | GI50 (PC-3) | GI50 (MDA-MB-231) | GI50 (ACHN)
CC(=O)OC[C@H]1O[C@@H](n2cc(-c3cn(CCC(F)(F)C(F)(F)C(F)(F)C(F)(F)C(F)(F)C(F)(F)F)nn3)c(=O)[nH]c2=O)C[C@@H]1OC(C)=O | 89.4 µM | 99.4 µM | 113.8 µM |  |  |  | 
CC(=O)OC[C@H]1O[C@@H](n2cc(-c3cn(CCC(F)(F)C(F)(F)C(F)(F)C(F)(F)C(F)(F)C(F)(F)C(F)(F)C(F)(F)F)nn3)c(=O)[nH]c2=O)C[C@@H]1OC(C)=O | 77.9 µM | 99.1 µM | 110.8 µM |  |  |  | 
O=c1[nH]c(=O)n([C@H]2C[C@H](O)[C@@H](CO)O2)cc1-c1cn(CCC(F)(F)C(F)(F)C(F)(F)C(F)(F)C(F)(F)C(F)(F)F)nn1 | 114.5 µM | 106.5 µM | 99.3 µM |  |  |  | 
O=c1[nH]c(=O)n([C@H]2C[C@H](O)[C@@H](CO)O2)cc1-c1cn(CCC(F)(F)C(F)(F)C(F)(F)C(F)(F)C(F)(F)C(F)(F)C(F)(F)C(F)(F)F)nn1 | 16.7 µM | 15.9 µM | 14.2 µM | Non-toxic | 7.75 µM | 8.67 µM | 8.24 µM
O=c1[nH]c(=O)n([C@H]2C[C@H](O)[C@@H](CO)O2)cc1-c1cn(CCC(F)(F)C(F)(F)C(F)(F)C(F)(F)C(F)(F)C(F)(F)C(F)(F)C(F)(F)C(F)(F)C(F)(F)F)nn1 | 89.4 µM | 93.7 µM | 90.8 µM |  |  |  | 
O=c1[nH]c(=O)n([C@H]2C[C@H](O)[C@@H](CO)O2)cc1-c1cn(CCC(F)(F)C(F)(F)F)nn1 | 96.4 µM | 98.7 µM | 96.1 µM |  |  |  | 
O=c1[nH]c(=O)n([C@H]2C[C@H](O)[C@@H](CO)O2)cc1-c1cn(CCC(F)(F)C(F)(F)C(F)(F)C(F)(F)F)nn1 | 97.8 µM | 109.7 µM | 116 µM |  |  |  | 
COc1cccc2c1C(=O)c1c(O)c3c(c(O)c1C2=O)C[C@@](O)(C(=O)CO)C[C@@H]3O[C@H]1C[C@H](N)[C@H](O)[C@H](C)O1 [DOXORUBICIN] | 28.5 µM | 16.5 µM | 12.3 µM |  | 0.28 µM | 0.18 µM | 0.22 µM
O=c1[nH]c(=O)n([C@H]2C[C@H](O)[C@@H](CO)O2)cc1F [FLOXURIDINE] | 40.7 µM |  | 25.8 µM |  | 4.97 µM | 0.16 µM | 2.1 µM
